16 compounds from patent US20070092551A1, “Therapeutic agent” (TAKARA BIO INC., priority 2003, published 2007) can be followed below.

Some results are limits rather than exact numbers.

For the assay, the system named is mature adipocytes (3T3-L1 cells). The experiment in a line: Enhancing action on glucose uptake (2-deoxyglucose) into mature adipocytes. In kind it is cell-based. Conditions: Mus musculus, 3T3-L1, X=(S−N)/(P−N) of 2-deoxyglucose uptake, P=insulin 1 μg/mL, read-out: Enhancing Action on Glucose Uptake. As to the method: The induction of differentation into nature adipocytes was carried out by partially modifying the above-mentioned method of Rubin C. S. et al. 3T3-L1 cells (ATCC CCL-92.1) were suspended in a 10% fetal bovine serum (manufactured by Bio Whittaker)-containing Dulbecco's modified Eagle's medium (manufactured by Sigma, D6046) containing 200 μM ascorbic acid so as to have a density of 4×10^3 cells/mL, and the suspension was put in each well of a collagen type I-coated 12-well plate (Iwaki Glass Co., Ltd., code 4815-010) in an amount of 2 mL per well. The cells were cultured at 37° C. for 7 days in the presence of 5% carbon dioxide gas. On the seventh day, the medium was exchanged with 2 mL of a 10% fetal bovine serum (manufactured by Bio Whittaker)-containing Dulbecco's modified Eagle's medium containing 200 μM ascorbic acid, 0.25 μM dexamethasone, 10 μg/mL insulin (manufactured by TAKARA BIO INC.) and 0.5 mM 3-isobutyl-1-methylxanthine (manufactured by nacalai tesque, 19624-86). After 45 hours, the medium was exchanged with 2 mL of a 10% fetal bovine serum-containing Dulbecco's modified Eagle's medium containing 200 μM ascorbic acid and 5 μg/mL insulin. The medium was exchanged on after 2 days and 5 days, and the cells were cultured for 7 days, to give mature adipocytes.
As the evaluation of the enhancing action on glucose uptake, and also as the evaluation of the insulin-mimetic action, the amount of 2-deoxyglucose uptake into mature adipocytes during the stimulation of the test compound in the adipocytes was determined. As a test compound, a compound prepared in the Examples mentioned above or a commercially available compound was used.
After the termination of the culture, the medium was removed, and the cells were washed twice with a 0.1% (w/v) bovine serum albumin (manufactured by Sigma, A8022)-containing Dulbecco's modified Eagle's medium. Thereafter, 1 mL of the same medium containing a test compound in a concentration shown in each of Tables 20 to 23 was put to each well. The cells were cultured overnight at 37° C. in the presence of 5% carbon dioxide gas. Here, a group without containing the test compound was set as a negative control. After the overnight culture, the cells were washed twice with a HEPES buffer (140 mM NaCl, 5 mM KCl, 2.5 mM MgSO4, 1 mM CaCl2, 20 mM HEPES-Na (pH 7.4)). The amount 0.9 mL of the buffer containing a test compound in the same concentration was added to each well. The cells were cultured at 37° C. for 75 minutes. During the culture, as a positive control, there was set a group with addition of insulin to the well without addition of a test compound at a point 45 minutes passed so as to have a final concentration of 1 μg/mL. Thereafter, 100 μL of a HEPES buffer containing 0.5 μCi/mL 2-deoxy-[1,2-^3H(N)]-glucose (manufactured by PerkinElmer Life Sciences Inc., NET549A) and 1 mM 2-deoxyglucose (manufactured by nacalai tesque, 10722-11) was added thereto. The cells were cultured at 37° C. for additional 10 minutes. After the termination of the culture, the supernatant was removed, and the cells were washed three times with a phosphate buffer cooled to 4° C. Thereafter, 0.5 mL of a 1% Nonidet P-40-containing phosphate buffer was added to lyse the cells, whereby 2-deoxy-[1,2-^3H(N)]-glucose subjected to uptake into the cells was eluted. The radioactivity was determined with a liquid scintillation counter LS6500 (manufactured by Beckmann) using 25 μL of the supernatant with Ultima Gold (manufactured by PerkinElmer Life Sciences Inc., 6013329) as a scintillation cocktail. The enhancing action on glucose uptake was calculated by the following calculation formula, and shown by four ranks of +++, ++, + and +/−. • S: Amount of 2-deoxyglucose uptake in the presence of a test compound; • N: Amount of 2-deoxyglucose uptake in the negative control; and • P: Amount of 2-deoxyglucose uptake in the positive control; X=(S−N)/(P−N) (Judgment of Enhancing Action for 2-Deoxyglucose Uptake)

Turning to `COc1ccc(C=O)c(O)c1` [2-Hydroxy-4-methoxybenzaldehyde], the activation at 10 µM was 15 to 30% and the activation at 30 µM is 30 to 60%.
Taken in the same sequence, the figures for `O=C(/C=C/c1ccccc1)c1ccccc1` [Chalcone] were 30 to 60% and 30 to 60%.
Taken in the same sequence, the figures for `O=C(/C=C/c1ccc(O)c(O)c1)c1ccccc1O` [Compound (C005), 3,4,2′-trihydroxychalcone] were 30 to 60% and 30 to 60%.
Consider `O=C(/C=C/c1ccc(O)c(O)c1)c1cc(O)ccc1O` [Compound (C006), 3,4,2′,5′-tetrahydroxychalcone], for which the activation at 10 µM lay within 30 to 60%.
Regarding `O=C(/C=C/c1ccc(O)c(O)c1)c1ccc(Cl)cc1Cl` [Compound (C011), 3,4-dihydroxy-2′,4′-dichlorochalcone], the activation at 3 µM lay within 15 to 30%, the activation at 10 µM is 60 to 100% and the activation at 30 µM is more than 100%.
For `CC(=O)c1cc(CC=C(C)C)c(O)cc1O` [Compound (C025), 2′,4′-dihydroxy-5′-prenylacetophenone], the activation at 10 µM was 15 to 30% and the activation at 30 µM fell in the range of 30 to 60%.
The matching figures for `COc1ccc(C(=O)/C=C/c2ccc(OC3CCCCO3)cc2)c(O)c1CC=C(C)C` (stereo not shown) [Compound (C030), 4-tetrahydropyranyloxy-2′-hydroxy-3′-prenyl-4′-methoxychalcone]: 30 to 60% and more than 100%.
As for `COc1ccc(C(=O)/C=C/c2ccc(O)c(O)c2)c(O)c1CC=C(C)C` [Compound (C031), 3,4,2′-trihydroxy-3′-prenyl-4′-methoxychalcone], the activation at 10 µM was 15 to 30% and the activation at 30 µM was more than 100%.
Consider `COc1ccc(C(=O)/C=C/c2ccc(O)cc2)c(O)c1CCC(C)C` [Compound (C043), 4,2′-dihydroxy-3′-(3-methylbutyl)-4′-methoxychalcone], for which the activation at 3 µM is 15 to 30% and the activation at 10 µM is more than 100%.
`CC(=O)c1ccc(OC2CCCCO2)c(C/C=C(\C)CCC=C(C)C)c1O` (stereo not shown) [Compound (C045), 2′-hydroxy-3′-geranyl-4′-tetrahydropyranyloxyacetophenone]: the activation at 10 µM is 15 to 30% and the activation at 30 µM was 30 to 60%.
For the compound `CCOc1ccc(C(=O)/C=C/c2ccc(O)cc2)c(O)c1C/C=C(\C)CCC=C(C)C` [Compound (C050), 4,2′-dihydroxy-3′-geranyl-4′-ethoxychalcone], the activation at 3 µM was 15 to 30% and the activation at 10 µM was more than 100%.
With `COc1ccc(C(=O)/C=C/c2ccc(O)cc2)c(O)c1C/C=C(\C)CC/C=C(\C)CCC=C(C)C` [Compound (C053), 4,2′-dihydroxy-3′-farnesyl-4′-methoxychalcone], the activation at 3 µM was 30 to 60%, the activation at 10 µM is more than 100% and the activation at 30 µM is more than 100%.
As to `CC(C)=CCC/C(C)=C/CC/C(C)=C/Cc1c(O)ccc(C(=O)/C=C/c2ccc(O)cc2)c1O` [Compound (C058), 4,2′,4′-trihydroxy-3′-farnesylchalcone], the activation at 30 µM was more than 100%.
Take `COc1ccc(C(=O)/C=C/C=C/c2ccccc2)c(O)c1CC=C(C)C` [Compound (C-CIN), 1-(2-hydroxy-4-methoxy-3-prenylphenyl)-5-phenyl-2,4-pentadien-1-one]: the activation at 3 µM lay in the range of 15 to 30%, the activation at 10 µM was 15 to 30% and the activation at 30 µM is more than 100%.
Turning to `COc1ccc2c(c1CC=C(C)C)OC(c1ccco1)C(=Cc1ccco1)C2=O` (stereo not shown) [Compound (FUR-2), 2-(2-furyl)-3-(2-furylmethylene)-2,3-dihydro-7-methoxy-8-prenyl-4H-1-benzopyran-4-one], the activation at 3 µM was in the range of 15 to 30%, the activation at 10 µM fell in the range of 30 to 60% and the activation at 30 µM lay within 30 to 60%.
Take `C/C=C(/C)C(=O)OC1c2c(ccc3ccc(=O)oc23)OC(C)(C)C1OC(C)=O` (stereo not shown) [Coumarin Compound A, 3′-acetoxy-4′-angeloyloxy-3′,4′-dihydroseselin]: the activation at 10 µM is more than 100% and the activation at 30 µM was more than 100%.
